Assay results reported in US8404866B2, “Substituted heterocyclic mercaptosulfonamide metalloprotease inhibitors” (Florida State University Research Foundation, priority 2008, dated 2013).
Counter-ions that a name gives are not always drawn.

Legend:
Type in all cases: biochemical
[1] = biological target: T1, MMP-12 (cdMET; catalytic domain of MMP-12/metalloelastase) (Homo sapiens, UniProt P39900); test: Enzyme kinetic assay, inhibition of MMP-12; settings: read-out: Ki (value in parentheses), cdMET MMP-12
T1 construct: catalytic domain of MMP-12/metalloelastase (cdMET)
Source text: (§1) The following protocol was used to obtain the data found in the following table. Materials: The fluorescent peptide substrates for matrix metalloproteinases (MMPs) used were purchased from Bachem Chem. Co. The metal salts and Brij-35 were purchased from Fisher Scientific Inc. All other chemicals were purchased from Sigma-Aldrich Chem. Co. The sources and biochemical characterizations of multiple MMPs, including MMP-1/human fibroblast collagenase (HFC), MMP-2/human fibroblast gelatinase (HFG), MMP-8/human neutrophil collagenase (HNC), and MMP-9/human neutrophil gelatinase (HNG), MMP-7/human matrilysin (MLN), MMP-3/human fibroblast stromelysin-1 (HFS), human recombinant catalytic domain of membrane-type 1 matrix metalloproteinase (cdMT1-MMP), catalytic domain of MMP-12/metalloelastase (cdMET), and MMP-26/human endometase (EDM) were described previously (Sang, Q. X., Birkedal-Hansen, H., and Van Wart, H. E. Proteolytic and non-proteolytic activation of human neutrophil progelatinase B. Biochim. Biophys. Acta. 1995; 1251, 99-108; Sang, Q. A., Bodden, M. K., and Windsor, L. J. Activation of human progelatinase A by collagenase and matrilysin: activation of procollagenase by matrilysin. J. Protein. Chem. 1996; 15, 243-253; Li, H., Bauzon, D. E., Xu, X., Tschesche, H., Cao, J., and Sang, Q.-X. A. Immunological characterization of cell-surface and soluble forms of membrane type 1 matrix metalloproteinase in human breast cancer cells and in fibroblasts. Molec. Carcinog. 1998; 22, 84-94; Park, H. I., Ni, J., Gerkema, F. E., Liu, D., Belozerov, V. E., and Sang, Q.-X. A. Identification and characterization of human endometase (Matrix metalloproteinase-26) from endometrial tumor. J. Biol. Chem., 2000; 275, 20540-20544). The active concentrations of MMPs were determined by titration with GM6001, a tight-binding MMP inhibitor, as described previously (Park, H. I., Turk, B. E., Gerkema, F. E., Cantley, L. C., and Sang, Q.-X. A. Peptide substrate specificities and protein cleavage sites of human endometase/matrilysin-2/matrix metalloproteinase-26. J. Biol. Chem. 2002; 277, 35168-35175).
(§2) The active inhibitor concentrations were estimated by titrating the mercapto group with 5,5′-dithiobis(2-nitrobenzoic acid) (DTNB; Ellman's reagent) as described previously (Ellman, G. L. A colorimetric method for determining low concentrations of mercaptans. Arch. Biochem. Biophys. 1958; 74, 443-450; Ellman, G. L. Tissue sulfhydryl groups. Arch. Biochem. Biophys. 1959; 82, 70-77; Riddles, P. W., Blakeley, R. L., and Zerner, B. Ellman's reagent: 5,5′-dithiobis(2-nitrobenzoic acid)—a reexamination. Anal. Biochem. 1979; 94, 75-81). Briefly, the reaction of DTNB with the mercapto group produces 2-nitro-5-thiobenzoic acid (TNB). The concentration of TNB is then measured by monitoring the absorbance at 412 nm. Cysteine was used to generate the standard curve with a molar extinction coefficient of 14,000±500 M^−1 cm^−1, which is close to the value in the literature (Riddles, P. W., Blakeley, R. L., and Zerner, B. Ellman's reagent: 5,5′-dithiobis(2-nitrobenzoic acid)—a reexamination. Anal. Biochem. 1979; 94, 75-81).
(§3) The substrate Mca-PLGLDpaAR-NH2 was used to measure inhibition constants (Knight, C. G., Willenbrock. F., and Murphy, G. A novel coumarin-labelled peptide for sensitive continuous assays of the matrix metalloproteinases. FEBS Lett. 1992; 296, 263-266). Enzymatic assays were performed at 25° C. in 50 mM HEPES buffer at pH 7.5 in the presence of 10 mM CaCl2, 0.2 M NaCl, and 0.01% or 0.05% Brij-35 with substrate concentrations of 1 μM. The release of product was monitored by measuring fluorescence (excitation and emission wavelengths of 328 nm and 393 nm, respectively) with a Perkin Elmer Luminescence Spectrophotometer LS 50B connected to a temperature controlled water bath. All stock solutions of inhibitors were in dimethyl sulfoxide. […]

[2] = biological target: MMP-9 (HNG; human neutrophil gelatinase) (Homo sapiens, UniProt P14780); test: Enzyme kinetic assay, inhibition of MMP-9; settings: read-out: Ki (value in parentheses), HNG MMP-9
Source text: as §1, §2, §3

[3] = biological target: T2, MMP-2 (HFG; human fibroblast gelatinase) (Homo sapiens, UniProt P08253); test: Enzyme kinetic assay, inhibition of MMP-2; settings: read-out: Ki (value in parentheses), HFG MMP-2
T2 sequence (P08253 110-660): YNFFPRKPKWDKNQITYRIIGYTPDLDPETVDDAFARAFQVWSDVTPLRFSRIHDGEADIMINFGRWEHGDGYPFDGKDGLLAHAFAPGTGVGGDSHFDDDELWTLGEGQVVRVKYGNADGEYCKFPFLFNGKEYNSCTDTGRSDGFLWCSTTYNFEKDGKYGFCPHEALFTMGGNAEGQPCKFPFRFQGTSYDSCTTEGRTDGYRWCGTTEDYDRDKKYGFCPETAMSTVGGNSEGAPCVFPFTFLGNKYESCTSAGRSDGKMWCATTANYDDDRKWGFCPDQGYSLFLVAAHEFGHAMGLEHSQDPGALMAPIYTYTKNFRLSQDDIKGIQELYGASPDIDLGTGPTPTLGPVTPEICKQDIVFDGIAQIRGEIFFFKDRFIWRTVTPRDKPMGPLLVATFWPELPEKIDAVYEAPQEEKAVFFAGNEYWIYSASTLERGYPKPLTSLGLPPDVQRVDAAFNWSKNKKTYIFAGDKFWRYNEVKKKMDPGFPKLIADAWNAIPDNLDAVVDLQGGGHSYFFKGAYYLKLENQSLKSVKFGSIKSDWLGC
Source text: as §1, §2, §3

[4] = biological target: MMP-3 (HFS; human fibroblast stromelysin-1) (Homo sapiens, UniProt P08254); test: Enzyme kinetic assay, inhibition of MMP-3; settings: for Ki: read-out: Ki (value in parentheses), HFS MMP-3; for IC50: 25° C., pH 7.5, substrate 1 μM, read-out: IC50 (value without parentheses), HFS MMP-3
Source text: as §1, §2, §3

[5] = biological target: T3, MMP-7 (MLN; human matrilysin) (Homo sapiens, UniProt P09237); test: Enzyme kinetic assay, inhibition of MMP-7; settings: for IC50: 25° C., pH 7.5, substrate 1 μM, read-out: IC50 (value without parentheses), MLN MMP-7; for Ki: read-out: Ki (value in parentheses), MLN MMP-7
T3 sequence (P09237 95-267): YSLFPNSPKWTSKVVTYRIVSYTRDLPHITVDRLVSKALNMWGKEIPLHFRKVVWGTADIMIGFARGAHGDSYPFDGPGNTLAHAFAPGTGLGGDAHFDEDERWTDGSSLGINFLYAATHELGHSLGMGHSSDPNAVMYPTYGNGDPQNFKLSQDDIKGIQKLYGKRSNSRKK
Source text: as §1, §2, §3

Chain of MMP-3 (HFS; human fibroblast stromelysin-1) (P08254 100-477): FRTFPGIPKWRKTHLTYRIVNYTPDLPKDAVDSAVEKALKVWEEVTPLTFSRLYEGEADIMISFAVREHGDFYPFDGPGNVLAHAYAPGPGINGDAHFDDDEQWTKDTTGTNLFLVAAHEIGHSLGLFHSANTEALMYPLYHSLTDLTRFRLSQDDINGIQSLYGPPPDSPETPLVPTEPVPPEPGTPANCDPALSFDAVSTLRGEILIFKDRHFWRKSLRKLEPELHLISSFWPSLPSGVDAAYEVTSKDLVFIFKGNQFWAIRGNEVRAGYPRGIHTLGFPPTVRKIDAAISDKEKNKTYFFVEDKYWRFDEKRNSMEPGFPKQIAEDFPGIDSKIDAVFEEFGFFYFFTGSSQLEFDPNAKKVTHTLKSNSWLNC
Chain of MMP-9 (HNG; human neutrophil gelatinase) (P14780 94-707): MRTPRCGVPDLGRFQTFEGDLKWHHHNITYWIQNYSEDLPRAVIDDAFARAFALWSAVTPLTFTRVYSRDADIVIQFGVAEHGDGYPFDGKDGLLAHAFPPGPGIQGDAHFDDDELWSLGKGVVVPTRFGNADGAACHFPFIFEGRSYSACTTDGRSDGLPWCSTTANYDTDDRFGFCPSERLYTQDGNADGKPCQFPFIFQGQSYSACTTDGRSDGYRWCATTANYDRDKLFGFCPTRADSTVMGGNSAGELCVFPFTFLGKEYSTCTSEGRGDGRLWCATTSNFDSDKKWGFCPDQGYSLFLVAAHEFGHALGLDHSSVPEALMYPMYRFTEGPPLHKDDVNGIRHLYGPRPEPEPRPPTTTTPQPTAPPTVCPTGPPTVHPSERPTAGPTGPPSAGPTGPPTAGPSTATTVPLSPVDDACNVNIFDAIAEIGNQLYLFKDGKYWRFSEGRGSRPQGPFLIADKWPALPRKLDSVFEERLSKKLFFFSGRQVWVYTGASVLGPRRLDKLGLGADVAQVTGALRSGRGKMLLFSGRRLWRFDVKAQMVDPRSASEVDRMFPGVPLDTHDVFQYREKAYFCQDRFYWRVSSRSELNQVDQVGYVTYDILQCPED
T1 sequence (P39900 106-263 limits assumed, species assumed): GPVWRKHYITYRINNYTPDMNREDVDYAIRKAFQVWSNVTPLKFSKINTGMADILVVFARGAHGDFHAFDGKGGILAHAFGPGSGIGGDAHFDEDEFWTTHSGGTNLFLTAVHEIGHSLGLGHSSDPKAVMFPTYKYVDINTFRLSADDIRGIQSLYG

Structure (SMILES) | Ki [1] [nM] | Ki [2] [nM] | Ki [3] [nM] | Ki [4] [nM] | IC50 [5] [nM] | IC50 [4] [nM] | Ki [5] [nM]
NC(=O)N1C[C@H](NS(=O)(=O)c2ccc(Oc3ccccc3)cc2)[C@@H](S)C1 (racemic) [Example 1, (±)-N-Carbamoyl-trans-3-(4-phenoxybenzenesulfonamido)-4-mercaptopyrrolidine] | 250 | 15 | 3.9 | 460 | > 25000 | – | –
O=C(NCCN1C(=O)c2ccccc2C1=O)N1C[C@H](NS(=O)(=O)c2ccc(Oc3ccccc3)cc2)[C@@H](S)C1 (racemic) [Example 2, (±)-N-(2-Phthalimidoethylaminocarbonyl)-trans-3-(4-phenoxybenzenesulfonamido)-4-mercaptopyrrolidine] | 2 | 2.4 | 35 | 37 | > 12500 | – | –
O=S(=O)(N[C@H]1CNC[C@@H]1S)c1ccc(Oc2ccccc2)cc1 (racemic) [Example 3, (±)-trans-3-(4-Phenoxybenzenesulfonamido)-4-mercaptopyrrolidine Hydrochloride] | 38 | 230 | 27 | 2500 | > 25000 | – | –
CN([C@H]1CN(C(N)=O)C[C@@H]1S)S(=O)(=O)c1ccc(Oc2ccccc2)cc1 (racemic) [Example 4, (±)-N-Carbamoyl-trans-3-(N-methyl-4-phenoxybenzenesulfonamido)-4-mercaptopyrrolidine] | 160 | 1.3 | 2.3 | 350 | > 25000 | – | –
O=C(OCc1ccccc1)N1C[C@H](NS(=O)(=O)c2ccc(Oc3ccccc3)cc2)[C@@H](S)C1 (racemic) [Example 5, (±)-N-(Benzyloxycarbonyl)-trans-3-(4-phenoxybenzenesulfonamido)-4-mercaptopyrrolidine] | 720 | 13 | 24 | 4500 | > 50000 | – | –
O=C(OCc1ccccc1)N1C[C@H](NS(=O)(=O)c2ccc(-c3ccccc3)cc2)[C@@H](S)C1 (racemic) [Example 6, (±)-N-(Benzyloxycarbonyl)-trans-3-(4-phenylbenzenesulfonamido)-4-mercaptopyrrolidine] | 710 | 81 | 78 | – | > 12500 | ~7000 | –
NCCCCCC(=O)N1C[C@H](NS(=O)(=O)c2ccc(Oc3ccccc3)cc2)[C@@H](S)C1 (racemic) [Example 7, (±)-N-(6-Aminohexanoyl)-trans-3-(4-phenoxybenzene-sulfonamido)-4-mercaptopyrrolidine Hydrochloride] | 4.8 | 2.3 | 2.2 | 2000 | – | – | 4000
CC(=O)NCCCCCC(=O)N1C[C@H](NS(=O)(=O)c2ccc(Oc3ccccc3)cc2)[C@@H](S)C1 (racemic) [Example 8, (±)-N-(6-Acetamidohexanoyl)-trans-3-(4-phenoxy-benzenesulfonamido)-4-mercaptopyrrolidine] | 2 | 1.5 | 3.8 | 810 | – | – | 3000
CC(=O)NCCCCCC(=O)N1C[C@H](NS(=O)(=O)c2ccc(-c3ccccc3)cc2)[C@@H](S)C1 (racemic) [Example 9, (±)-N-(6-Acetamidohexanoyl)-trans-3-(4-phenylbenzene-sulfonamido)-4-mercaptopyrrolidine] | 29 | 400 | 63 | – | – | ~20000 | 2000
